Like-named read-outs stand apart in the source and are kept apart here.
Target: recombinant eIF4E (Homo sapiens (Human), UniProt P06730)
Assay: Fluorescence polarization competition assay for eIF4E binding potency
Outline: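 IC50 values reflect 50% displacement of 20 nM EDA-m7GDP-ATTO-550 from 75 nM eIF4E, measured by fluorescence polarization after 30 min at room temperature. Buffer: 20 mM Tris pH 7.5, 100 mM NaCl, 1 mM DTT, 0.02% Tween-20; 1% DMSO.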

[1] = fluorescence polarization competition, 75 nM recombinant eIF4E, 20 nM EDA-m7GDP-ATTO-550, IC50 class, read-out: elF4E FP
[2] = inhibition of eIF4E/EDA-m7GDP-ATTO-550 binding by 50%, Table 4B calculated values, read-out: IC50

Sequence of recombinant eIF4E (P06730 whole entry): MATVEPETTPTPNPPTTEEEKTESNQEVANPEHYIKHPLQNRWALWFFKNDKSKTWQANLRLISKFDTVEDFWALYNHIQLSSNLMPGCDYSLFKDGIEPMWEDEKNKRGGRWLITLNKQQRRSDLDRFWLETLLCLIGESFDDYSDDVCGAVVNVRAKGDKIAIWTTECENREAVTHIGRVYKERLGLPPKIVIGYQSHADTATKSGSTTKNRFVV

SMILES	IC50 [1] [nM]	IC50 [2] [nM]
Cc1cc(-c2cc(Cl)ccc2OCCn2c(C)nc3cc(C(F)(F)F)c(-c4ccccn4)c(C#N)c3c2=O)c2sc(C)c(C(=O)O)c2n1 [compound 421]	< 50	–
Cc1cc(-c2cc(Cl)ccc2OCCn2c(C)nc3cc(C(F)(F)F)c(CC4CNC4)c(C#N)c3c2=O)c2scc(C(=O)O)c2n1 [compound 424]	< 50	4.08
Cc1cc(-c2cc(Cl)ccc2OCCn2c(C)nc3cc(C(F)(F)F)c(-c4ccccn4)cc3c2=O)c2scc(C(=O)O)c2n1 [compound 426]	< 50	41.2
Cc1cc(-c2cc(Cl)ccc2OCCn2c(C)nc3cc(C(F)(F)F)c(C4=CCOCC4)c(C#N)c3c2=O)c2scc(C(=O)O)c2n1 [compound 429]	< 50	–
Cc1cc(-c2cc(Cl)ccc2OCCn2c(C)nc3cc(C(F)(F)F)c(-c4ncc(F)cc4F)c(C#N)c3c2=O)c2scc(C(=O)O)c2n1 [compound 433]	< 50	4.15
Cc1ccc(F)c(-c2c(C(F)(F)F)cc3nc(C)n(CCOc4ccc(Cl)cc4-c4cc(C)nc5c(C(=O)O)csc45)c(=O)c3c2C#N)n1 [compound 434]	< 50	7.76
Cc1cc(-c2cc(Cl)ccc2OCCn2c(C)nc3cc(C(F)(F)F)c(-c4ccncc4C)nc3c2=O)c2scc(C(=O)O)c2n1 [compound 436]	< 50	7.17
Cc1cc(-c2cc(Cl)ccc2OCCn2c(C)nc3cc(C(F)(F)F)c(-c4cnc(C)nc4C)c(C#N)c3c2=O)c2scc(C(=O)O)c2n1 [compound 437]	< 50	6.21
Cc1cc(-c2cc(Cl)ccc2OCCn2c(C)nc3cc(C(F)F)c(-c4cc(F)cnc4C)c(C#N)c3c2=O)c2scc(C(=O)O)c2n1 [compound 438]	< 50	9.16
Cc1cc(-c2c(C(F)(F)F)cc3nc(C)n(CCOc4ccc(Cl)cc4-c4cc(C)nc5c(C(=O)O)csc45)c(=O)c3c2C#N)cnn1 [compound 442]	< 50	17.7
Cc1nc2cc(C(F)(F)F)cc(C#N)c2c(=O)n1CCOc1ccc(Cl)cc1-c1cc(Cl)nc2c(C(=O)O)csc12 [compound 444]	< 50	30.8
Cc1nc2cc(C(F)(F)F)cc(C#N)c2c(=O)n1CCOc1ccc(Cl)cc1-c1cc(C(N)=O)nc2c(C(=O)O)csc12 [compound 445]	50 to 1000	–
Cc1nc2cc(C(F)(F)F)cc(C#N)c2c(=O)n1CCOc1ccc(Cl)cc1-c1cc(C#N)nc2c(C(=O)O)csc12 [compound 446]	50 to 1000	–
Cc1cc(-c2cc(Cl)ccc2OCCn2c(C)nc3cc(C(F)(F)F)cc(C#N)c3c2=O)c2csc(C(=O)O)c2n1 [compound 447]	50 to 1000	84.8
Cc1cc(-c2cc(Cl)ccc2OCCn2c(C)nc3cc(CN(C)C)c(OC(F)F)c(C#N)c3c2=O)c2scc(C(=O)NS(C)(=O)=O)c2n1 [compound 451]	< 50	36
Cc1nc2cc(C(F)(F)F)cc(C#N)c2c(=O)n1CCOc1ccc(Cl)cc1-c1cc(CN)nc2c(C(=O)O)csc12 [compound 452]	< 50	46.6
Cc1nc2cc(C(F)(F)F)cc(C#N)c2c(=O)n1CCOc1ccnnc1-c1ccnc2c(C(=O)O)csc12 [compound 453]	> 1000	2320
Cc1nc2cc(C(F)(F)F)cc(C#N)c2c(=O)n1CCOc1cnc(Cl)nc1-c1ccnc2c(C(=O)O)csc12 [compound 454]	50 to 1000	51.1
Cc1nc2cc(C(F)(F)F)cc(C#N)c2c(=O)n1CCOc1cnc(C#N)nc1-c1ccnc2c(C(=O)O)csc12 [compound 455]	50 to 1000	473
Cc1cc(-c2cc(Cl)ccc2OCCn2c(C)nc3cc(C(F)(F)F)c(-c4cccnc4)nc3c2=O)c2scc(C(=O)O)c2n1 [compound 461]	< 50	6.15
Cc1cc(-c2cc(Cl)ccc2OCCn2c(C)nc3cc(C(F)(F)F)c(-c4ccccn4)nc3c2=O)c2scc(C(=O)O)c2n1 [compound 462]	< 50	10.5
Cc1cc(-c2nc3c(=O)n(CCOc4ccc(Cl)cc4-c4cc(C)nc5c(C(=O)O)csc45)c(C)nc3cc2C(F)(F)F)ccn1 [compound 463]	< 50	8.86
Cc1cc(-c2cc(Cl)ccc2OCCn2c(C)nc3cc(C(F)(F)F)c(-c4ccncc4)nc3c2=O)c2scc(C(=O)O)c2n1 [compound 464]	< 50	21.4
Cc1cc(-c2c(C(F)(F)F)cc3nc(C)n(CCOc4ccc(Cl)cc4-c4cc(C)nc5c(C(=O)O)csc45)c(=O)c3c2C#N)cc(C)n1 [compound 465]	< 50	15.1
Cc1cc(-c2cc(Cl)ccc2OCCn2c(C)nc3cc(C(F)(F)F)c(-c4ccccc4)nc3c2=O)c2scc(C(=O)O)c2n1 [compound 467]	< 50	–
Cc1cc(-c2c(C(F)(F)F)cc3nc(C)n(CCOc4ccc(Cl)cc4-c4cc(C)nc5c(C(=O)O)csc45)c(=O)c3c2C#N)c(C)cn1 [compound 469]	< 50	2.25
Cc1cc(-c2c(C(F)(F)F)cc3nc(C)n(CCOc4ccc(Cl)cc4-c4cc(C)nc5c(C(=O)O)csc45)c(=O)c3c2C#N)c(F)cn1 [compound 471]	< 50	28.8
Cc1cc(-c2cc(Cl)ccc2OCCn2c(C)nc3cc(C(F)(F)F)c(Cc4ncccc4F)c(C#N)c3c2=O)c2scc(C(=O)O)c2n1 [compound 473]	< 50	14.5

Second part, the compound after the results:

IC50 [1] [nM]	IC50 [2] [nM]	SMILES
< 50	11.5	Cc1cc(-c2cc(Cl)ccc2OCCn2c(C)nc3cc(C(F)(F)F)c(N4CCCC4)c(C#N)c3c2=O)c2scc(C(=O)O)c2n1 [compound 422]
< 50	8.84	Cc1cc(-c2cc(Cl)ccc2OCCn2c(C)nc3cc(C(F)(F)F)c(N4CCCCC4)c(C#N)c3c2=O)c2scc(C(=O)O)c2n1 [compound 423]
< 50	11.2	Cc1cc(-c2cc(Cl)ccc2OCCn2c(C)nc3cc(C(F)(F)F)c(CC4CN(C)C4)c(C#N)c3c2=O)c2scc(C(=O)O)c2n1 [compound 425]
< 50	25	Cc1cc(-c2cc(Cl)ccc2OCCn2c(C)nc3cc(C(F)(F)F)c(N4CCN(C)CC4)cc3c2=O)c2scc(C(=O)O)c2n1 [compound 427]
< 50	7.45	Cc1cc(-c2cc(Cl)ccc2OCCn2c(C)nc3cc(C(F)(F)F)c(N4CCN(CC(F)F)CC4)c(C#N)c3c2=O)c2scc(C(=O)O)c2n1 [compound 428]
< 50	9	Cc1cc(-c2cc(Cl)ccc2OCCn2c(C)nc3cc(C(F)(F)F)c(N4CCN(CCF)CC4)c(C#N)c3c2=O)c2scc(C(=O)O)c2n1 [compound 430]
50 to 1000	226	Cc1cc(-c2cc(Cl)ccc2OCCn2c(C)nc3cc(C(F)(F)F)c(C4CCOCC4)c(C#N)c3c2=O)c2scc(C(=O)O)c2n1 [compound 431]
< 50	25.8	Cc1cc(-c2cc(Cl)ccc2OCCn2c(C)nc3cnc(C(C)C)c(C#N)c3c2=O)c2scc(C(=O)O)c2n1 [compound 432]
< 50	16.7	Cc1cc(-c2cc(Cl)ccc2OCCn2c(C)nc3cnc(N4CCC4)c(C#N)c3c2=O)c2scc(C(=O)O)c2n1 [compound 435]
< 50	4.99	Cc1cc(-c2cc(Cl)ccc2OCCn2c(C)nc3cc(C(F)F)c(-c4cccnc4C)c(C#N)c3c2=O)c2scc(C(=O)O)c2n1 [compound 440]
< 50	20.4	Cc1cc(-c2cc(Cl)ccc2OCCn2c(C)nc3c(C)nc(-c4cc(F)cnc4C)c(C#N)c3c2=O)c2scc(C(=O)O)c2n1 [compound 441]
< 50	4.2	Cc1nc(N2CCN(C)CC2)c(C#N)c2c(=O)n(CCOc3ccc(Cl)cc3-c3ccnc4c(C(=O)O)csc34)c(C)nc12 [compound 448]
< 50	7.84	Cc1cc(-c2cc(Cl)ccc2C#CCn2c(C)nc3c(C)nc(N4CCN(C)CC4)c(C#N)c3c2=O)c2scc(C(=O)O)c2n1 [compound 450]
< 50	10.9	Cc1nc2cc(OC(F)(F)F)cc(C#N)c2c(=O)n1CCOc1ccc(Cl)cc1-c1ccnc2c(C(=O)O)csc12 [compound 456]
< 50	11.2	Cc1nc2ccc(OCCN(C)C)c(C#N)c2c(=O)n1CCOc1ccc(Cl)cc1-c1ccnc2c(C(=O)O)csc12 [compound 457]
< 50	36.8	Cc1nc2cc(CN(C)C)c(OC(F)F)c(C#N)c2c(=O)n1CCOc1ccc(Cl)cc1-c1ccnc2c(C(=O)O)csc12 [compound 458]
< 50	9.3	CCc1ncccc1-c1c(C(F)(F)F)cc2nc(C)n(CCOc3ccc(Cl)cc3-c3cc(C)nc4c(C(=O)O)csc34)c(=O)c2c1C#N [compound 466]
< 50	4.36	CCc1cc(-c2c(C(F)(F)F)cc3nc(C)n(CCOc4ccc(Cl)cc4-c4cc(C)nc5c(C(=O)O)csc45)c(=O)c3c2C#N)ccn1 [compound 468]
< 50	23.6	Cc1cc(-c2cc(Cl)ccc2OCCn2c(C)nc3cc(C(F)(F)F)c(-c4ccnc(C)c4F)c(C#N)c3c2=O)c2scc(C(=O)O)c2n1 [compound 472]
< 50	13.5	Cc1cc(-c2cc(Cl)ccc2OCCn2c(C)nc3c(C)nc(-c4ccc(F)cc4)c(C#N)c3c2=O)c2scc(C(=O)O)c2n1 [compound 474]
< 50	17	Cc1cc(-c2cc(Cl)ccc2OCCn2c(C)nc3c(C)nc(-c4cccc(F)c4)c(C#N)c3c2=O)c2scc(C(=O)O)c2n1 [compound 475]
< 50	33.9	Cc1cc(-c2cc(Cl)ccc2OCCn2c(C)nc3c(C)nc(-c4ccccc4F)c(C#N)c3c2=O)c2scc(C(=O)O)c2n1 [compound 476]
< 50	–	Cc1ccc(-c2nc(C)c3nc(C)n(CCOc4ccc(Cl)cc4-c4cc(C)nc5c(C(=O)O)csc45)c(=O)c3c2C#N)cc1 [compound 477]

Source: patent US11286268B1, “EIF4E-inhibiting compounds and methods” (EFFECTOR THERAPEUTICS, INC., priority 2019, dated 2022)
